From patent US11325900B2, “5-(pyrimidin-4-yl)thiazol-2-yl urea derivatives as therapeutic agents” (AUCENTRA HOLDINGS PTY LTD, priority 2018, dated 2022)

Columns and labels:
CDK8/CycC = target: T1, CDK8/CycC (Homo sapiens, UniProt P49336); assay: Radiometric protein kinase assay (33PanQinase Activity Assay, ProQinase); assay type: biochemical; conditions: 1.0 μM ATP, 1.0 μg/50 μL substrate RBER-IRStide, duplicate measurements, read-out: CDK8 Kinase inhibition IC50
T1 construct: purchased ProQinase GmbH, Freiburg, Germany
In short: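 33P radiometric kinase assay on CDK8/CycC with 1.0 μM ATP and 1.0 μg/50 μL RBER-IRStide substrate. IC50 values came from duplicate measurements. Ki was calculated from IC50 and Km(ATP).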

HCT-116 = assay: Cell viability assay (MTT, solid tumour cell lines), 72 h growth inhibition; assay type: cell-based; conditions: Homo sapiens, HCT-116 cells
Description: (§1) Compounds from Example 1 may be subjected to a standard MTT (3-(4,5-dimethylthiazol-2-yl)-2,5-diphenyltetrazolium bromide) and resazurin assays on solid tumour cell lines and leukemia cell lines, respectively, as previously reported (Wang S et al., J Med Chem 47:1662-1675, 2004 and Diab S e al. CheMedChem 9:962-972, 2014). Compound concentrations required to inhibit 50% of cell growth (GI50) can be calculated using non-linear regression analysis.

MV-4-11 = assay: Cell viability assay (resazurin, leukemia cell lines), 72 h growth inhibition; assay type: cell-based; conditions: Homo sapiens, MV4-11, MV-4-11 cells
Description: as §1

[1] = test system: acute myeloid leukaemia (AML) cell lines; conditions: background; cited from earlier work
mouse model of AML = conditions: background; cited from earlier work

T1 sequence (P49336 whole entry): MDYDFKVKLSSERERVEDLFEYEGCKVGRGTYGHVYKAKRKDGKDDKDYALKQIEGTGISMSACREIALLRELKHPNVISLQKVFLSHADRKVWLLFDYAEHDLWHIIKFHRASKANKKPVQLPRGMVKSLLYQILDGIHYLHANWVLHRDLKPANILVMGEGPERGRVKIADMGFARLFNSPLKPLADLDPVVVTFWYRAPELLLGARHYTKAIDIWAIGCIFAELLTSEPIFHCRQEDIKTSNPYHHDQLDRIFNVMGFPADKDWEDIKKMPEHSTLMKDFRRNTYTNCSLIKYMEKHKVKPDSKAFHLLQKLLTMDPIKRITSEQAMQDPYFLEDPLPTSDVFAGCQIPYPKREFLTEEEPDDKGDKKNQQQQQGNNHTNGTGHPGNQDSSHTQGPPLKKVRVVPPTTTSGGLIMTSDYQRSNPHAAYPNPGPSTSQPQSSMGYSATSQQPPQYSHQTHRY
T1 sequence (P24863 whole entry partner): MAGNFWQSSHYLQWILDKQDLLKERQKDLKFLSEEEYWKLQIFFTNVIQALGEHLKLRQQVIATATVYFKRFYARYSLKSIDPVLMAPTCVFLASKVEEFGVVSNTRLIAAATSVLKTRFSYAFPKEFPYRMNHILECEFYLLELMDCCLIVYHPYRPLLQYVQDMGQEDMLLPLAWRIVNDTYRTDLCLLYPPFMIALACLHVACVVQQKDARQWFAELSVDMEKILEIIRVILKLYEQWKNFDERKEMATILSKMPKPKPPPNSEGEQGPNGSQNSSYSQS

Molecule	IC50 (CDK8/CycC)	GI50 (HCT-116)	GI50 (MV-4-11)	Suppression of cell growth (in words) [1]	Anticancer activity (in words) (mouse model of AML)
CNc1nccc(-c2sc(NC(=O)Nc3ccc(OC)cc3)nc2C)n1 [Compound 45, 1-(4-Methoxyphenyl)-3-(4-methyl-5-(2-(methylamino)pyrimidin-4-yl)thiazol-2-yl)urea]	11 nM	3.04 ± 0.53 µM	0.756 ± 0.12 µM		
Cc1nc(NC(=O)Nc2cccc(Cl)c2)sc1-c1ccnc(N(C)C)n1 [Compound 47, 1-(3-Chlorophenyl)-3-(5-(2-(dimethylamino)pyrimidin-4-yl)-4-methylthiazol-2-yl)urea]	38 nM	5.77 ± 0.42 µM	5.28 ± 0.15 µM		
cortistatin A				suppress cell growth	shows anticancer activity

Continued by falling IC50 (CDK8/CycC), values first:

IC50 (CDK8/CycC)	GI50 (HCT-116)	GI50 (MV-4-11)	Molecule	Suppression of cell growth (in words) [1]	Anticancer activity (in words) (mouse model of AML)
60 nM	4.32 ± 0.41 µM	5.71 ± 0.59 µM	Cc1nc(NC(=O)Nc2cccc(C(F)(F)F)c2)sc1-c1ccnc(N)n1 [Compound 51, 1-(5-(2-Aminopyrimidin-4-yl)-4-methylthiazol-2-yl)-3-(3-(trifluoromethyl)phenyl)urea]		
46 nM	8.34 ± 0.6 µM	5.91 ± 0.18 µM	Cc1ccc(NC(=O)Nc2nc(C)c(-c3ccnc(N(C)C)n3)s2)cc1Cl [Compound 48, 1-(3-Chloro-4-methylphenyl)-3-(5-(2-(dimethylamino)pyrimidin-4-yl)-4-methylthiazol-2-yl)urea]		
41 nM	35 ± 11.8 µM	5.5 ± 0.49 µM	Cc1nc(NC(=O)Nc2cccc(C(F)(F)F)c2)sc1-c1ccnc(N(C)C)n1 [Compound 46, 1-(5-(2-(Dimethylamino)pyrimidin-4-yl)-4-methylthiazol-2-yl)-3-(3-(trifluoromethyl)phenyl)urea]		
